# Data as given in paper doi:10.1101/2024.08.25.609621 (bioRxiv, 2024).
# Where “and” joins values, the source holds several entries; their conditions need not be identical. Equal entries are not always repeated. Where two headings read alike, the source gives them in different places.
# What was measured:
# in vitro = settings: human; for Papp A→B at 1 h / Papp B→A at 1 h: Caco-2
# Experimental: (§1) Caco-2 cell plates were obtained commercially and were maintained for 21 days at 37°C with 5% CO2. Cells were washed with Hank’s Balanced Salt Solution (HBSS) with 5 mM HEPES for 30 minutes before starting the experiment. Test compound solutions are prepared by diluting DMSO stock into HBSS buffer, resulting in a final DMSO concentration of 0.1%. Prior to the assay, cell monolayer integrity was verified by […] electrical resistance (TEER) to ensure that wells have resistance above the acceptance cut-off (1 kΩ). Transport experiments were initiated by adding test compounds to the apical (75 μl) or basal (250 μl) side. Transport plates were incubated at 37°C in a humidified incubator with 5% CO2. Samples were taken from the donor and acceptor compartments after one hour and analyzed by liquid chromatography with tandem mass spectrometry (LC/MS/MS) using an AB Sciex API 4000 instrument, coupled to a Shimadzu LC-20AD LC Pump system. Samples were separated using a Waters Atlantis T3 dC18 reverse phase HPLC column (20 mm × 2.1 mm) at a flow rate of 0.5 ml/min. The mobile phase consisted of 0.1% formic acid in acetonitrile (solvent A) and 0.1% formic acid in water (solvent B).
# (§2) Apparent permeability (Papp) values were calculated using the following equation: Papp=(dQ/dt)/A/C0 where dQ/dt is the initial rate of compound transport across the cell monolayer, A is the surface area of the filter membrane, and C0 is the initial concentration of the test compound, calculated for each direction using a four-point calibration curve by LC/MS/MS.
# (§3) Net flux ratio between the two directional transports was calculated by the following equation: Ratio=PappB-A/PappA-B where PappB-A and PappA-B represent the apparent permeability of compounds from the basal-to-apical and apical-to-basal side of the cellular monolayer, respectively. Recovery was calculated based on the compound concentration at the end of the experiment, compared to that at the beginning of the experiment, adjusted for volumes.
# Caco-2 cells = assay: in vitro
# Experimental: as §1, §2, §3
# Microsomal stability = assay type: in vitro ADME, mouse; settings: for half-life at 1 µM / microsomal CLint at 1 µM: pH 7.4
# Experimental: The assay was carried out in 96-well plates at 37°C. Reaction mixtures (25 μl) contained a final concentration of 1 μM compound, 0.5 mg/ml liver microsomes protein, and 1 mM NADPH and/or 1 mM UDPGA (with alamethicin) in 100 mM potassium phosphate (pH 7.4) with 3 mM MgCl2. After 0, 15, 30, and 60 minutes, 150 μl of quench solution (100% acetonitrile with 0.1% formic acid) with internal standard was transferred to each well. Reactions containing the same components except the NADPH were prepared as the negative control. Plates were sealed, vortexed, and centrifuged at 4°C for 15 minutes at 4000 rpm.
# The extent of metabolism was calculated as the disappearance of compounds, compared to the 0-min time incubation.
# Kinetic solubility = settings: pH 7.4, aqueous buffer, kinetic from dmso stock
# [1] = target: SARS-CoV-2 NSP3 macrodomain (Mac1) (Severe acute respiratory syndrome coronavirus 2, UniProt P0DTD1); assay: biochemical; assay type: binding
# [2] = target: T1, human macrodomain MacroD2 (Homo sapiens, UniProt A1Z1Q3); assay: HTRF peptide displacement assay, MacroD2; assay type: binding
# T1 sequence (A1Z1Q3 with tags, fused parts or gaps): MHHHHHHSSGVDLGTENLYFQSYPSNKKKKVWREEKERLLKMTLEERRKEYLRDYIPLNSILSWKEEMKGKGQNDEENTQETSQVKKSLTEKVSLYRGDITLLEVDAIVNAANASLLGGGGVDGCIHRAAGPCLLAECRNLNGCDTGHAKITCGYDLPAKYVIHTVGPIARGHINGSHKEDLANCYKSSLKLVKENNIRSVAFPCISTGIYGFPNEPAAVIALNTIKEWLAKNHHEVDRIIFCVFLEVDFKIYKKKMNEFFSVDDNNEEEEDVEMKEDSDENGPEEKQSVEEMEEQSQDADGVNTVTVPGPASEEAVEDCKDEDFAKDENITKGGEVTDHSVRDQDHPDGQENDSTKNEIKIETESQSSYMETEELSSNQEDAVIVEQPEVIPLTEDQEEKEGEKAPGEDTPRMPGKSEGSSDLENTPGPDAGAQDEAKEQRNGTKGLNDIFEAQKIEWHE
# human macrodomain Targ1 = target: T2, human macrodomain Targ1 (Homo sapiens, UniProt Q9Y530); assay: HTRF peptide displacement assay, Targ1; assay type: binding
# T2 sequence (Q9Y530 with tags, fused parts or gaps): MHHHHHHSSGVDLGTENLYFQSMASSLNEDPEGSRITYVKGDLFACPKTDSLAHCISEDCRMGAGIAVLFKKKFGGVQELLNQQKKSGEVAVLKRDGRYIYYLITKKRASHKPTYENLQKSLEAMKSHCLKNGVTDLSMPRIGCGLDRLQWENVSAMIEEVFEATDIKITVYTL
# [3] = target: SARS-CoV-2 NSP3 macrodomain (Mac1), P43 crystal form (Severe acute respiratory syndrome coronavirus 2, UniProt P0DTD1); assay type: binding; settings: for 1-BDC: PanDDA background density correction; for Total number of conformations: ligand conformations modeled in Mac1 crystal structure; for 2*(1-BDC) (%): occupancy estimate from PanDDA 1-BDC
# [4] = Caco-2, Caco-2 ratio B-A/A-B, net flux ratio
# [5] = Caco-2, compound concentration 5
# [6] = mouse, microsomes, 1 μM compound, 0.5 mg/ml microsomal protein, read-out: Mouse microsome T1/2
# [7] = mouse microsomes, read-out: CLint (mouse)
# [8] = liver microsomes, mouse microsome stability, read-out: CLint (mouse) (µl/min/mg protein), mean
# [9] = preliminary screen, compound at 200 μM, mean of 3-4 technical replicates, read-out: % competition in HTRF assay
# [10] = dose-response, read-out: Human MacroD2 HTRF assay: IC50
# [11] = dose-response, read-out: Human Targ1 HTRF assay: IC50
# [12] = liver microsomes, mouse microsomes, read-out: CLint (mouse) (µl/min/mg protein), mean
# [13] = crystal soak 10 mM, P43 crystals
SMILES,Papp A→B at 1 h (in vitro) [×10⁻⁶ cm/s],Papp B→A at 1 h (in vitro) [×10⁻⁶ cm/s],efflux ratio at 1 h (in vitro; [4]),Recover Rate (%) (Caco-2 cells; [5]),"T1/2 (min), mean (Microsomal stability; mouse microsome stability) [min]",half-life at 1 µM (Microsomal stability; [6]) [min],microsomal CLint at 1 µM (Microsomal stability; [7]) [µL/min/mg],microsomal CLint at 1 µM (Microsomal stability; [8]) [µL/min/mg],"microsomal CLint at 1 µM (Microsomal stability; mouse, microsomes) [µL/min/mg]",solubility kinetic at […] (Kinetic solubility; phosphate buffered saline) [µM],"Hill slope ([1]; HTRF dose-response fit, Mac1)","inhibition at 200 µM [1, 9] [%]","IC50 [2, 10] [µM]",binding to the human macrodomain MacroD2 ([2]; in words),IC50 (human macrodomain Targ1; [11]) [µM],binding to the human macrodomain Targ1 (human macrodomain Targ1; in words),"efflux ratio at 1 h (in vitro; Caco-2, Ratio (B-A/A-B))","Recover Rate (%) (Caco-2 cells; human, Caco-2, 1 h)",microsomal CLint at 1 µM (Microsomal stability; [12]) [µL/min/mg],"half-life at 1 µM (Microsomal stability; mouse, microsomes) [min]",other results
"O=C(Nc1ccc(C(=O)N[C@H]2c3cccc(O)c3C[C@H]2C(=O)O)cc1)NC1CC1 [AVI-92, reference compound]",0.04,1.7,40.7,91,>120,> 120,< 11.6,,,,,,,,,,,,,,"efflux ratio at 1 h (in vitro; Caco-2, Ratio (B-A/A-B), Caco-2, compound concentration 5): 42.5; CLint (mouse) (µl/min/mg protein), mean (Microsomal stability; mouse microsome stability): <11.6 µl/min/mg protein; solubility kinetic at […] (Kinetic solubility): 524 µM"
"O=C1CCCN1Nc1ncnc2[nH]c3cc(F)ccc3c12 [AVI-219, reference compound]",10.6,16.8,1.6,98,,,,53.1,53.1,127,,,,,,,,,,,"half-life at 1 µM (Microsomal stability; liver microsomes, mouse microsome stability, read-out: T1/2 (min), mean): 26.1 min"
"CC(C)(O)[C@H]1CCCN1c1ncnc2[nH]ccc12 [AVI-607, 2-[(2R)-1-{7H-Pyrrolo[2,3-d]pyrimidin-4-yl}pyrrolidin-2-yl]propan-2-ol]",22,15.7,0.7,,,,,,73,518,1.5,100,> 1000,none,> 1000,none,0.71,93,73,19,"inhibition at 200 µM ([1]; Single dose, concentration 200 μM, read-out: SARS CoV-2 macrodomain HTRF assay: Average % competition): 100%; SARS CoV-2 macrodomain HTRF assay: Hillslope ([1]; dose-response fit): 1.5; 1-BDC [3]: 0.44; Pandda run, overall: Modeling comment ([3]; crystal soak, soak concentration 10 mM): High occupancy, use manual refinement; Pandda run, overall: Hit ([3]; crystal soak, soak concentration 10 mM, TRUE = ligand hit): TRUE; Total number of conformations [3]: 1; 2*(1-BDC) (%) [3]: 88%; X-ray crystallography: Binding site ([3]; site where the ligand is bound in the X-ray crystal structure): Adenosine; PanDDA run, DMSO background map: 1-BDC ([3]; soak concentration 10 mM): 0.42 and 0.44; PanDDA run, DMSO background map: Hit ([3]; soak concentration 10 mM): TRUE"
CC(c1ccccc1)C(CO)Nc1ncnc2[nH]ccc12 (stereo not shown) [AVI-3669],19.4,14.5,0.7,,,,,166,166,529,1.2,98,,none,,none,0.75,93,,8.3,"Hill slope ([1]; SARS CoV-2 macrodomain HTRF assay, dose-response): 1.2; inhibition at 200 µM ([1]; Single dose, concentration 200 μM, read-out: Average % competition): 98%; IC50 ([2]; Human MacroD2 HTRF assay, dose-response, read-out: IC50): > 1000 µM; IC50 (human macrodomain Targ1; Human Targ1 HTRF assay, dose-response, read-out: IC50): > 1000 µM; 1-BDC [3]: 0.14; X-ray crystal structure ([3]; X-ray crystal structure determined (TRUE)): TRUE; Pandda run, overall: Hit [3, 13]: TRUE; Pandda run, overall: Modeled [3, 13]: TRUE; PanDDA run, DMSO background map: 1-BDC ([3]; crystal soak 10 mM): 0.14; PanDDA run, DMSO background map: Hit ([3]; crystal soak 10 mM): TRUE; Total number of conformations [3]: 1; 2*(1-BDC) (%) [3]: 28%; Binding site ([3]; site of ligand in X-ray crystal structure): Adenosine"
C[C@H]1CCCN(c2ncnc3[nH]ccc23)[C@H]1CO [AVI-3716],25.9,18.9,,104,,31.2,,,44.4,523,,,> 1000,none,> 1000,none,,,44.4,,"Mouse microsome stability: T1/2 (min), mean (Microsomal stability; mouse microsomes): 31.2 min"
"Cc1c[nH]c2ncnc(NCC3(O)CCCCC3)c12 [AVI-3761, 1-(((5-methyl-7H-pyrrolo[2,3-d]pyrimidin-4-yl)amino)methyl)cyclohexan-1-ol]",21.5,11.2,,,7.49,7.49,185,,,,,,,,,,,86,,,IC50 [2]: > 1000 µM; binding to the human macrodomain MacroD2 [2]: none; IC50 (human macrodomain Targ1): > 1000 µM; binding to the human macrodomain Targ1 (human macrodomain Targ1): none
